ChEMBL document CHEMBL1201862, “PubChem BioAssay data set” (2004)
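Cells were grown in 96-well plates and exposed to each compound for 48 hours at five concentrations; endpoints were interpolated linearly between bracketing concentrations, or set to the highest concentration if not reached. GI50 = concentration required for 50% inhibition of growth.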 Activity calls are given as the source filed them. Rule as the data show it: active = GI50 up to about 1.1 µM and inactive = higher.

Columns and labels:
Test in all cases: NCI tumour cell line growth inhibition, 48 h
A549 = tested on: A549
NCI/ADR-RES = tested on: NCI/ADR-RES
HOP-62 = tested on: HOP-62
SK-MEL-2 = tested on: SK-MEL-2
Malme-3M = tested on: Malme-3M
M14 = tested on: M14
OVCAR-4 = tested on: OVCAR-4
COLO 205 = tested on: COLO 205
U-251 = tested on: U-251
EKVX = tested on: EKVX
SK-MEL-5 = tested on: SK-MEL-5
MDA-N = tested on: MDA-N
UACC-62 = tested on: UACC-62
HOP-92 = tested on: HOP-92
NCI-H460 = tested on: NCI-H460
UACC-257 = tested on: UACC-257
786-0 = tested on: 786-0
SNB-19 = tested on: SNB-19
NCI-H23 = tested on: NCI-H23
OVCAR-3 = tested on: OVCAR-3
RPMI-8226 = tested on: RPMI-8226
NCI-H226 = tested on: NCI-H226
PC-3 = tested on: PC-3
LOX IMVI = tested on: LOX IMVI
IGROV-1 = tested on: IGROV-1
SN12C = tested on: SN12C
MOLT-4 = tested on: MOLT-4
K562 = tested on: K562
SW-620 = tested on: SW-620
SF-295 = tested on: SF-295
KM12 = tested on: KM12
OVCAR-8 = tested on: OVCAR-8
SNB-75 = tested on: SNB-75
HCT-116 = tested on: HCT-116
HCC 2998 = tested on: HCC 2998
SK-OV-3 = tested on: SK-OV-3
UO-31 = tested on: UO-31
ACHN = tested on: ACHN
OVCAR-5 = tested on: OVCAR-5
Hs-578T = tested on: Hs-578T
SF-539 = tested on: SF-539
TK-10 = tested on: TK-10
SR = tested on: SR
MDA-MB-435 = tested on: MDA-MB-435
A498 = tested on: A498
MDA-MB-231 = tested on: MDA-MB-231
MCF7 = tested on: MCF7
HCT-15 = tested on: HCT-15
HT-29 = tested on: HT-29
T47D = tested on: T47D
SF-268 = tested on: SF-268
SK-MEL-28 = tested on: SK-MEL-28
BT-549 = tested on: BT-549
CCRF-CEM = tested on: CCRF-CEM
CAKI-1 = tested on: CAKI-1
DU-145 = tested on: DU-145
HL-60 = tested on: HL-60
NCI-H522 = tested on: NCI-H522

SMILES: C[C@@]12c3c4ccc(C=O)c3Oc3ccc(C=O)c(c31)Oc1c(C=O)ccc(c12)O4
- GI50 (A549): > 100 µM (inactive)
- GI50 (NCI/ADR-RES): > 100 µM (inactive)
- GI50 (HOP-62): > 100 µM (inactive)
- GI50 (SK-MEL-2): > 100 µM (inactive)
- GI50 (Malme-3M): > 100 µM (inactive)
- GI50 (M14): > 100 µM (inactive)
- GI50 (OVCAR-4): > 100 µM (inactive)
- GI50 (COLO 205): > 100 µM (inactive)
- GI50 (U-251): > 100 µM (inactive)
- GI50 (EKVX): > 100 µM (inactive)
- GI50 (SK-MEL-5): > 100 µM (inactive)
- GI50 (MDA-N): > 100 µM (inactive)
- GI50 (UACC-62): > 100 µM (inactive)
- GI50 (HOP-92): 0.565 µM (active)
- GI50 (NCI-H460): > 100 µM (inactive)
- GI50 (UACC-257): > 100 µM (inactive)
- GI50 (786-0): > 100 µM (inactive)
- GI50 (SNB-19): > 100 µM (inactive)
- GI50 (NCI-H23): > 100 µM (inactive)
- GI50 (OVCAR-3): > 100 µM (inactive)
- GI50 (RPMI-8226): > 100 µM (inactive)
- GI50 (NCI-H226): > 100 µM (inactive)
- GI50 (PC-3): > 100 µM (inactive)
- GI50 (LOX IMVI): > 100 µM (inactive)
- GI50 (IGROV-1): > 100 µM (inactive)
- GI50 (SN12C): > 100 µM (inactive)
- GI50 (MOLT-4): > 100 µM (inactive)
- GI50 (K562): > 100 µM (inactive)
- GI50 (SW-620): > 100 µM (inactive)
- GI50 (SF-295): > 100 µM (inactive)
- GI50 (KM12): > 100 µM (inactive)
- GI50 (OVCAR-8): > 100 µM (inactive)
- GI50 (SNB-75): > 100 µM (inactive)
- GI50 (HCT-116): > 100 µM (inactive)
- GI50 (HCC 2998): > 100 µM (inactive)
- GI50 (SK-OV-3): > 100 µM (inactive)
- GI50 (UO-31): > 100 µM (inactive)
- GI50 (ACHN): > 100 µM (inactive)
- GI50 (OVCAR-5): > 100 µM (inactive)
- GI50 (Hs-578T): > 100 µM (inactive)
- GI50 (SF-539): > 100 µM (inactive)
- GI50 (TK-10): > 100 µM (inactive)
- GI50 (SR): 2.96 µM (inactive)
- GI50 (MDA-MB-435): > 100 µM (inactive)
- GI50 (A498): 31.5 µM (inactive)
- GI50 (MDA-MB-231): > 100 µM (inactive)
- GI50 (MCF7): > 100 µM (inactive)
- GI50 (HCT-15): > 100 µM
- GI50 (HT-29): > 100 µM (inactive)
- GI50 (T47D): > 100 µM (inactive)
- GI50 (SF-268): > 100 µM (inactive)
- GI50 (SK-MEL-28): > 100 µM (inactive)
- GI50 (BT-549): > 100 µM (inactive)

SMILES: C[C@@]1(OC(=O)c2cc([N+](=O)[O-])cc([N+](=O)[O-])c2)C[C@@H]2CCCC[C@@H]21
- GI50 (A549): > 100 µM (inactive)
- GI50 (NCI/ADR-RES): > 100 µM (inactive)
- GI50 (HOP-62): > 100 µM (inactive)
- GI50 (SK-MEL-2): > 100 µM (inactive)
- GI50 (CCRF-CEM): > 100 µM (inactive)
- GI50 (Malme-3M): 58.3 µM (inactive)
- GI50 (M14): > 100 µM (inactive)
- GI50 (OVCAR-4): > 100 µM (inactive)
- GI50 (COLO 205): > 100 µM (inactive)
- GI50 (U-251): > 100 µM (inactive)
- GI50 (EKVX): > 100 µM (inactive)
- GI50 (SK-MEL-5): 83.8 µM (inactive)
- GI50 (MDA-N): > 100 µM (inactive)
- GI50 (UACC-62): > 100 µM (inactive)
- GI50 (NCI-H460): > 100 µM (inactive)
- GI50 (UACC-257): > 100 µM (inactive)
- GI50 (786-0): > 100 µM (inactive)
- GI50 (SNB-19): > 100 µM (inactive)
- GI50 (NCI-H23): > 100 µM (inactive)
- GI50 (CAKI-1): > 100 µM (inactive)
- GI50 (RPMI-8226): 31.6 µM (inactive)
- GI50 (NCI-H226): > 100 µM (inactive)
- GI50 (PC-3): > 100 µM (inactive)
- GI50 (LOX IMVI): > 100 µM (inactive)
- GI50 (IGROV-1): > 100 µM (inactive)
- GI50 (SN12C): > 100 µM (inactive)
- GI50 (MOLT-4): > 100 µM (inactive)
- GI50 (DU-145): > 100 µM (inactive)
- GI50 (K562): > 100 µM (inactive)
- GI50 (SW-620): > 100 µM (inactive)
- GI50 (SF-295): 66.4 µM (inactive)
- GI50 (KM12): > 100 µM (inactive)
- GI50 (OVCAR-8): > 100 µM (inactive)
- GI50 (SNB-75): 48.2 µM (inactive)
- GI50 (HCT-116): > 100 µM (inactive)
- GI50 (HCC 2998): > 100 µM (inactive)
- GI50 (SK-OV-3): > 100 µM (inactive)
- GI50 (UO-31): > 100 µM (inactive)
- GI50 (HL-60): > 100 µM (inactive)
- GI50 (ACHN): > 100 µM (inactive)
- GI50 (OVCAR-5): > 100 µM (inactive)
- GI50 (Hs-578T): 41.8 µM (inactive)
- GI50 (SF-539): > 100 µM (inactive)
- GI50 (TK-10): > 100 µM (inactive)
- GI50 (SR): > 100 µM (inactive)
- GI50 (MDA-MB-231): > 100 µM (inactive)
- GI50 (NCI-H522): > 100 µM (inactive)
- GI50 (MCF7): > 100 µM (inactive)
- GI50 (HCT-15): > 100 µM
- GI50 (HT-29): > 100 µM (inactive)
- GI50 (T47D): > 100 µM (inactive)
- GI50 (SF-268): > 100 µM (inactive)
- GI50 (SK-MEL-28): > 100 µM (inactive)
- GI50 (BT-549): > 100 µM (inactive)
